From the supplement of paper PMC10307832

Key:
Assay in all cases: relative viability (nuclei count vs DMSO), 5 days (fraction); higher = more cells survive
Wnt-C59 + Alpelisib = compound: CC1=NC=CC(=C1)C2=CC=C(C=C2)CC(=O)NC3=CC=C(C=C3)C4=CN=CC=C4 [Wnt-C59] + Cc1nc(NC(=O)N2CCC[C@H]2C(N)=O)sc1-c1ccnc(C(C)(C)C(F)(F)F)c1 [Alpelisib] (partner 2 µM)
How it was run: (§1)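 Dosing by pin tool came one day after lung cancer cell lines were seeded in 1536-well plates, using either one drug or a fixed anchor-drug dose plus five library-drug doses (not always all listed) in √10 steps. After 5 days, nuclei were counted on 4× images. Relative viability is treated-well nuclei count divided by vehicle-well nuclei count, and values are medians of duplicate plates.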

Lapatinib + Luminespib = compound: CS(=O)(=O)CCNCc1ccc(-c2ccc3ncnc(Nc4ccc(OCc5cccc(F)c5)c(Cl)c4)c3c2)o1 [Lapatinib] + CCNC(=O)c1noc(-c2cc(C(C)C)c(O)cc2O)c1-c1ccc(CN2CCOCC2)cc1 [Luminespib] (partner 0.01 µM)
How it was run: as §1

Lapatinib + Pictilisib = compound: CS(=O)(=O)CCNCc1ccc(-c2ccc3ncnc(Nc4ccc(OCc5cccc(F)c5)c(Cl)c4)c3c2)o1 [Lapatinib] + CS(=O)(=O)N1CCN(Cc2cc3nc(-c4cccc5[nH]ncc45)nc(N4CCOCC4)c3s2)CC1 [Pictilisib] (partner 1 µM)
How it was run: as §1

Lapatinib + Crizotinib = compound: CS(=O)(=O)CCNCc1ccc(-c2ccc3ncnc(Nc4ccc(OCc5cccc(F)c5)c(Cl)c4)c3c2)o1 [Lapatinib] + C[C@@H](Oc1cc(-c2cnn(C3CCNCC3)c2)cnc1N)c1c(Cl)ccc(F)c1Cl [Crizotinib] (partner 1 µM)
How it was run: as §1

For UMC-11, the relative viability (Wnt-C59 + Alpelisib; first compound 0.001 µM) was 1.08, the relative viability (Wnt-C59 + Alpelisib; first compound 0.01 µM) was 0.978 and the relative viability (Wnt-C59 + Alpelisib; first compound 0.03162 µM) was 1.07. It also gave a relative viability (Wnt-C59 + Alpelisib; first compound 0.1 µM) of 1.01, a relative viability (Lapatinib + Luminespib; first compound 0.02 µM) of 0.887 and a relative viability (Lapatinib + Luminespib; first compound 0.06325 µM) of 0.957. For the same cell line, the relative viability (Lapatinib + Luminespib; first compound 0.2 µM) was 0.976, the relative viability (Lapatinib + Luminespib; first compound 0.6325 µM) was 0.901 and the relative viability (Lapatinib + Luminespib; first compound 2 µM) was 1.02. The relative viability (Lapatinib + Pictilisib; first compound 0.02 µM) was 0.251, the relative viability (Lapatinib + Pictilisib; first compound 0.06325 µM) was 0.731 and the relative viability (Lapatinib + Pictilisib; first compound 0.2 µM) was 0.827. For the same cell line, the relative viability (Lapatinib + Pictilisib; first compound 0.6325 µM) was 0.839, the relative viability (Lapatinib + Pictilisib; first compound 2 µM) was 0.759 and the relative viability (Lapatinib + Crizotinib; first compound 0.02 µM) was 0.541. For the same cell line, the relative viability (Lapatinib + Crizotinib; first compound 0.06325 µM) was 0.508, the relative viability (Lapatinib + Crizotinib; first compound 0.2 µM) was 0.672 and the relative viability (Lapatinib + Crizotinib; first compound 0.6325 µM) was 0.578. The relative viability (Lapatinib + Crizotinib; first compound 2 µM) was 0.659.
